Data: article PMC7615677 (Science translational medicine, 2023)
Like-named read-outs stand apart in the source and are kept apart here.

Experiments:
[1] = tested on: HEK293F-derived mitochondria; assay: Calcium loading capacity (CLC) assessment; format: biochemical
Experimental: The CLC of frozen HEK293F-derived mitochondria was determined using a method based on that previously described for fresh rat liver mitochondria ([23]). Briefly, a buffer (130 mM Sucrose, 37.54 mM KCl, 2.5 mM KH2PO4, 5 mM HEPES) containing 0.5 mM Ca^2+ and supplemented with 15 mM succinate, 2.5 μM rotenone and 0.15 μg/ml cell impermeant Fluo 5N (Life Technologies), was added to each well of a 384 well microplate (control wells also contained 0.24 μl/well DMSO or 3 μM cyclosporine). Thawed mitochondria suspended at 0.6 mg/ml were added to all wells to initiate the assay, and the fluorescence measured every 5 minutes at 520 nm in a PHERAstar FS microplate reader (BMG LabTech, Aylesbury, UK), (25 reads over 2 hours). Area under the curve (AUC) values for the first 10 reads were exported and the concentration-response relationship was modelled using the following formula: y=((B-A)/(1+(10^X/10^C)^D)+A where B=max, A=min, C=IC50, D=slope. The fitted curves were then used to calculate a pXC50 value.

In vivo pharmacokinetics [2] = assay: In vivo pharmacokinetics; set-up: species or system female BALB/c mice; conditions: for AUC(0-t) / AUC / Cmax / Cmax at 5 days: mice, 5 days; for AUC(0-t): read-out: AUC0-24 (first dose); for AUC: read-out: AUC96-120 (last dose); for Cmax: read-out: Cmax (first dose); for Cmax at 5 days: read-out: Cmax (last dose)
In vivo pharmacokinetics [3] = assay: In vivo pharmacokinetics; set-up: species or system female BALB/c mice; conditions: female, BALB/c, plasma
Experimental: Single dose intravenous (IV) pharmacokinetic (PK) studies in male Sprague Dawley rats and IV and oral PK studies in female BALB/c mice were conducted at Monash University. […] Blood was sampled via a cannula implanted in the carotid artery (also on the day prior to dosing) at pre-determined time points up to 24 h post-dose. Samples were transferred to vials containing heparin as an anticoagulant, gently mixed and centrifuged, and plasma separated for subsequent quantitative analysis using LC-MS. […] A dose of 25 mg/kg prepared in an aqueous suspension vehicle containing 0.5% hydroxypropyl methylcellulose, 0.5% benzyl alcohol and 0.4% polysorbate 80 (0.2 mL per mouse) was also dosed via oral gavage. Mouse blood was sampled via submandibular bleed up to 24 h post-dose (n=2 mice per time point, n=3 samples per mouse) into vials containing heparin and plasma was separated for quantitative analysis as described above.
(§1) Additional PK studies were also conducted by WuXi AppTec Co, Ltd (Shanghai, China) according to protocols reviewed and approved by DNDi. […] IV and oral formulations for rats, mice and hamsters were the same as described above. For dogs, the IV dose was administered in saline containing 2% DMSO and 3% Solutol HS-15 and the oral formulation was as described above. Blood was sampled up to 48 h post-dose into vials containing potassium EDTA as an anticoagulant, proteins were precipitated with acetonitrile and plasma was separated and assayed by LC-MS.
(§2) Single dose pharmacokinetic parameters (clearance, volume of distribution and half-life) were initially estimated using non-compartmental methods and oral bioavailability was calculated using the ratio of the dose corrected AUC after oral dosing relative to that after IV administration. […] Where a full concentration versus time profile was obtained from a single animal, parameters were estimated for each animal and mean and standard deviations calculated. In the case of mice where sparse sampling was used with multiple animals per time point, the data analysis was conducted using the mean profile.

[4] = tested on: remaining CYP isoforms other than CYP1A2 and CYP3A4/5 (CYP2B6, CYP2C8, CYP2C9, CYP2C19, CYP2D6); assay: Cytochrome P450 inhibition, human liver microsomes; format: in vitro ADME; conditions: remaining isoforms (other than CYP1A2 and CYP3A4/5)
Experimental: Direct CYP inhibition studies were conducted using conditions described previously ([43]) following incubation of isoform-specific substrates with human liver microsomes. The formation of known metabolites mediated by a specific CYP isoform was monitored. CYP isoform-specific pathways (and positive control inhibitors) included CYP1A2: phenacetin O-deethylation (furafylline), CYP2B6: bupropion hydroxylation (PPP), CYP2C8: amodiaquine deethylation (quercetin) CYP2C9: tolbutamide methylhydroxylation (sulfaphenazole), CYP2C19: (S)-mephenytoin 4’-hydroxylation (ticlopidine), CYP2D6: dextromethorphan O-demethylation (quinidine), and CYP3A: midazolam 1’-hydroxylation and testosterone 6β-hydroxylation (ketoconazole). […] The organic solvent content was maintained at less than 1% (v/v). NADPH was added to initiate the reaction which was then quenched by the addition of acetonitrile containing internal standard at specified times. Concentrations of the isoform-specific metabolites were quantified by LC-MS (Waters Xevo TQD triple quadrupole MS coupled to a Waters Acquity UPLC system) relative to calibration standards prepared in pre-quenched microsomal matrix.

hERG = hERG (Homo sapiens, UniProt Q12809); assay: In vitro pharmacology panel (Eurofins); set-up: purchased Eurofins (Cerep/DiscoverX SafetyScreen44 in vitro pharmacology panel); conditions: human hERG potassium channel, [3H]dofetilide binding assay, probe [3H] Dofetilide, read-out: activity (% of DMSO control)
Excerpt: Listed values represent the percent change relative to the DMSO control activity. When an IC50 had to be determined, eight different concentrations were included. All values are the mean of assay readout duplicates.

In vivo pharmacokinetics [5] = assay: In vivo pharmacokinetics; set-up: species or system female golden Syrian hamsters; conditions: for AUC(0-t): read-out: AUC0-24 (first dose); for AUC: read-out: AUC96-120 (last dose)
Experimental: as §1, §2

[6] = target: complex III of L. donovani (Leishmania donovani, UniProt A5HU08); assay: Complex III assay in mitochondria-enriched cell lysates
Experimental: Measurement of complex III activity and inhibition were performed as described previously ([6]).

[7] = Exploratory 14-day rat toxicology study
Excerpt: Parameters monitored included morbidity/mortality, clinical signs, body weight, food consumption, hematology and serum clinical chemistry. Main study animals were killed on the day after the last dose and necropsied. Selected organs were weighed. Organ/tissue samples were fixed and preserved at necropsy. Following the macroscopic examination, selected organs/tissues were examined histopathologically and compared to the control group. Satellite animals were sampled for toxicokinetics on days 1 and 14, at various time-points after treatment.

[8] = female, BALB/c, mouse, plasma, oral 3.6 mg/kg bid
[9] = female, BALB/c, mouse, plasma, oral 7.1 mg/kg bid
[10] = female, BALB/c, mouse, plasma, oral 12.5 mg/kg bid
[11] = female, golden Syrian, hamster, plasma, hamsters, oral 12.5 mg/kg qd, 5 days
[12] = female, golden Syrian, hamster, plasma, hamsters, oral 25 mg/kg qd, 5 days

Sequence of complex III of L. donovani (A5HU08 1-290): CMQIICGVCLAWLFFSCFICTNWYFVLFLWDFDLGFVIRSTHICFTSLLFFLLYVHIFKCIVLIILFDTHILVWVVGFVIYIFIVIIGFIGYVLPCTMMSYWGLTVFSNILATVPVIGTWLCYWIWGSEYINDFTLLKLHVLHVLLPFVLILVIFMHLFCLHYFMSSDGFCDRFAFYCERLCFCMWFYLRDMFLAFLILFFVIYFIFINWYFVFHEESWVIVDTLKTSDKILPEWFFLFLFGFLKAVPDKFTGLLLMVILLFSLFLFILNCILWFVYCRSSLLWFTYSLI
Sequence of complex III of L. donovani (A0A3S7WPP0 1-258 partner): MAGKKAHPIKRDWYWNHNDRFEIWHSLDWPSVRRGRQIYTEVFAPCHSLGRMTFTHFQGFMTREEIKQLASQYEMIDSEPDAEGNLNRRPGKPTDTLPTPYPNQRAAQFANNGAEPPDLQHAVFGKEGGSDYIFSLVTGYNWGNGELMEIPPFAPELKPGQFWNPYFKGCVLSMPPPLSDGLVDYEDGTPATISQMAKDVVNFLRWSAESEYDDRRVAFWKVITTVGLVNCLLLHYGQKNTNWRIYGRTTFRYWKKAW
Sequence of hERG (Q12809 whole entry): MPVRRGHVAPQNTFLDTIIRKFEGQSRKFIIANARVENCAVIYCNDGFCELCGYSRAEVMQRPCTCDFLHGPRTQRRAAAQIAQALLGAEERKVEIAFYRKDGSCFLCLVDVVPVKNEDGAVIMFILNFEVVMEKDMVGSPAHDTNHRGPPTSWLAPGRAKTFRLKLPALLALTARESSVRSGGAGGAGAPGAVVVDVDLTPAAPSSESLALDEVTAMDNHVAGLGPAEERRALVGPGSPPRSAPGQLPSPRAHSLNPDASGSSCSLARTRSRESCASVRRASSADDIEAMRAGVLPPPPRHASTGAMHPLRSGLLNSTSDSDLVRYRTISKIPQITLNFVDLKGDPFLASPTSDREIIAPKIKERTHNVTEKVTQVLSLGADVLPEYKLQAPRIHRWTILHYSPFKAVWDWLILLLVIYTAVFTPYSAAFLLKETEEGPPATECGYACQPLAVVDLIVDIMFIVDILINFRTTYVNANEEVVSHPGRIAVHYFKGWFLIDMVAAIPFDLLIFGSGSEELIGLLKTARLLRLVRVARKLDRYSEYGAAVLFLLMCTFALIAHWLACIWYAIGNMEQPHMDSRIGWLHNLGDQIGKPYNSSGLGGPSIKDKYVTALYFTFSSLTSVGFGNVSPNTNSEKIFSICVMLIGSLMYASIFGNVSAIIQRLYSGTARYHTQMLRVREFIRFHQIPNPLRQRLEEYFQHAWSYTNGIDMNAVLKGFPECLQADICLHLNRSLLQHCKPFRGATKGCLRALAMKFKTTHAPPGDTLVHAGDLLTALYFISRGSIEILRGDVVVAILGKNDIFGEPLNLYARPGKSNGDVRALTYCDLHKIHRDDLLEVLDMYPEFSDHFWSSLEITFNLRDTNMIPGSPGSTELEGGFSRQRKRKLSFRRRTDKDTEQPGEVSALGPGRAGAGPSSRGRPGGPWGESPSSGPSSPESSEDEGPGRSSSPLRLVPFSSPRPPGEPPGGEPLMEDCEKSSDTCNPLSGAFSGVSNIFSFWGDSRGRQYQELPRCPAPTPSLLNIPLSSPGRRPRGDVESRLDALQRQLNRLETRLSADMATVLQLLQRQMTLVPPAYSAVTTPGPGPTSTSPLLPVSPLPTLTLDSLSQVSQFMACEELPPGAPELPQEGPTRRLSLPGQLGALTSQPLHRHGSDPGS

In the case of `Cc1[nH]c2nc(N)nc(C)c2c1-c1ccc(C#N)c2c1OCO2` [DNDI-6174], the “Mean pXC50, calcium loading capacity” value ([1]; HEK mitochondria) is reported as 5, the “XC50, reduction in calcium loading capacity” value ([1]; isolated HEK mitochondria) is reported as 10 µM and the “increase in Cmax over the 5-day dosing period” value (In vivo pharmacokinetics [2]; bid dosing in mice) is reported as “approximately 2 fold”. It also gave a clearance (In vivo pharmacokinetics [2]; female, BALB/c, mouse, plasma, iv, 2 mg/kg, Mouse, read-out: Measured in vivo CLplasma) of 7.5 mL/min/kg, an AUC(0-t) (In vivo pharmacokinetics [2]; [8]) of 10600 ng·h/mL and an AUC (In vivo pharmacokinetics [2]; [8]) of 15700 ng·h/mL. The Cmax (In vivo pharmacokinetics [2]; [8]) was 600 ng/mL, the Cmax at 5 days (In vivo pharmacokinetics [2]; [8]) was 1350 ng/mL and the AUC(0-t) (In vivo pharmacokinetics [2]; [9]) was 35500 ng·h/mL. For the same compound, the AUC (In vivo pharmacokinetics [2]; [9]) was 37000 ng·h/mL, the Cmax (In vivo pharmacokinetics [2]; [9]) was 1930 ng/mL and the Cmax at 5 days (In vivo pharmacokinetics [2]; [9]) was 3040 ng/mL. For the same compound, the AUC(0-t) (In vivo pharmacokinetics [2]; [10]) was 94500 ng·h/mL, the AUC (In vivo pharmacokinetics [2]; [10]) was 93300 ng·h/mL and the Cmax (In vivo pharmacokinetics [2]; [10]) was 3830 ng/mL. The Cmax at 5 days (In vivo pharmacokinetics [2]; [10]) was 6810 ng/mL, the AUC(0-inf) (In vivo pharmacokinetics [2]; female, BALB/c, plasma, Mouse, intravenous 2.0 mg/kg, read-out: Plasma AUC0-inf) was 4470 ng·h/mL and the half-life (In vivo pharmacokinetics [2]; female, BALB/c, plasma, Mouse, oral 25 mg/kg, read-out: Apparent t1/2 (converted)) was 222 min. For the same compound, the AUC(0-inf) (In vivo pharmacokinetics [2]; female, BALB/c, plasma, Mouse, oral 25 mg/kg, read-out: Plasma AUC0-∞) was 75500 ng·h/mL, the clearance (In vivo pharmacokinetics [3]; mouse, iv, 2 mg/kg, intravenous 2.0 mg/kg, read-out: Plasma CL) was 7.46 mL/min/kg and the half-life (In vivo pharmacokinetics [3]; Mouse, intravenous 2.0 mg/kg, read-out: Apparent t1/2 (converted)) was 120 min. For the same compound, the Cmax (In vivo pharmacokinetics [3]; Mouse, oral 25 mg/kg) was 10400 ng/mL, the Tmax (In vivo pharmacokinetics [3]; Mouse, oral 25 mg/kg) was 1 h and the bioavailability (In vivo pharmacokinetics [3]; Mouse, oral 25 mg/kg) was > 100%. The IC50 [4] was > 15 µM, the activity at 10 µM (hERG) was 94.2% and the Cmax at 5 days (In vivo pharmacokinetics [5]; [11]) was 3530 ng/mL. It also gave an AUC(0-t) (In vivo pharmacokinetics [5]; [11]) of 22900 ng·h/mL, an AUC (In vivo pharmacokinetics [5]; [11]) of 30200 ng·h/mL and a Cmax at 5 days (In vivo pharmacokinetics [5]; [12]) of 7790 ng/mL. For the same compound, the AUC(0-t) (In vivo pharmacokinetics [5]; [12]) was 44200 ng·h/mL, the AUC (In vivo pharmacokinetics [5]; [12]) was 77400 ng·h/mL and the Cmax (In vivo pharmacokinetics [5]; female, golden Syrian, hamster, plasma, hamsters, oral 25 mg/kg qd, 5 days, read-out: Cmax (Day 1)) was 4560 ng/mL. The AUC(0-t) (In vivo pharmacokinetics [5]; female, golden Syrian, hamster, plasma, hamsters, oral 50 mg/kg, single dose on day 1 only) was 145000 ng·h/mL, the Cmax (In vivo pharmacokinetics [5]; female, golden Syrian, hamster, plasma, hamsters, oral 50 mg/kg, single dose on day 1 only, read-out: Cmax (Day 1)) was 13200 ng/mL and the Tmax (In vivo pharmacokinetics [5]; female, golden Syrian, plasma, Hamster, oral 12.5 mg/kg) was 2.7 h. For the same compound, the half-life (In vivo pharmacokinetics [5]; female, golden Syrian, plasma, Hamster, oral 12.5 mg/kg, read-out: Apparent t1/2 (converted)) was 156 min, the Cmax (In vivo pharmacokinetics [5]; female, golden Syrian, plasma, Hamster, oral 12.5 mg/kg, read-out: Cmax) was 2870 ng/mL and the AUC(0-inf) (In vivo pharmacokinetics [5]; female, golden Syrian, plasma, Hamster, oral 12.5 mg/kg, read-out: Plasma AUC0-∞) was 21200 ng·h/mL. For the same compound, the “Cmax (Day 1)” value (In vivo pharmacokinetics [5]; hamsters, oral 12.5 mg/kg qd, 5 days) was 2.87 µg/mL, the IC50 ([6]; lysates from axenic amastigote stage) was 2 ± 0.5 nM and the IC50 ([6]; lysates from promastigote stage) was 8 ± 1.7 nM. For the same compound, the “tolerability, in words” value ([7]; 200 mg/kg) was “early sacrifice of one female on day 5”, the body weight decrease ([7]; 200 mg/kg, males) was > 10% and the “tolerability, in words” value ([7]; 30 and 80 mg/kg oral) was “no mortality or morbidity”.
